Like-named read-outs stand apart in the source and are kept apart here.
Legend:
DNA topoisomerase I = molecular target: T1, DNA topoisomerase I (Homo sapiens, UniProt P11387); test: topoisomerase I-mediated DNA relaxation assay (cell-free); type: biochemical; conditions: read-out: DNA topoisomerase I inhibition (IC50)
T1 sequence (P11387 1-765): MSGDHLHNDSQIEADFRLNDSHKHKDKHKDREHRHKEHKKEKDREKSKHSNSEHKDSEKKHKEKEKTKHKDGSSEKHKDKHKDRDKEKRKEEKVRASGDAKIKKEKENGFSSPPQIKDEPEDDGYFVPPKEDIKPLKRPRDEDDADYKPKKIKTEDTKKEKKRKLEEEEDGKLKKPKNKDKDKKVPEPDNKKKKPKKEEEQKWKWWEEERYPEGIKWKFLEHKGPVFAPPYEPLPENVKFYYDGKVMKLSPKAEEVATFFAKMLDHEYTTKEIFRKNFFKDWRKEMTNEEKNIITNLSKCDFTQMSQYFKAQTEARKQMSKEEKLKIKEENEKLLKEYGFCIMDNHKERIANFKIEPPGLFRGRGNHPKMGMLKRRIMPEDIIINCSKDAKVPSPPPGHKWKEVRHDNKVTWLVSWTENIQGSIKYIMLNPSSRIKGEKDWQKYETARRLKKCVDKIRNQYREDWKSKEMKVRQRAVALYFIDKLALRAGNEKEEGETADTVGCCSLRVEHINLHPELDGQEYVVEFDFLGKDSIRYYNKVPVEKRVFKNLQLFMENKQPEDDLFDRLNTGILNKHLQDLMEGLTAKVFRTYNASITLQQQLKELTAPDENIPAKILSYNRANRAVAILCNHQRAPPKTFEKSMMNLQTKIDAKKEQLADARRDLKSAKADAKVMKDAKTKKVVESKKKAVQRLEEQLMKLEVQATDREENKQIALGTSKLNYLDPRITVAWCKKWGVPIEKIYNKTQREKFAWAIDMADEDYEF
Source text: SKB264 is a TROP2-targeting ADC, which consists of a recombinant humanized anti-TROP2 antibody and a topoisomerase I inhibitor derived from Belotecan (KL610023), integrated together via a sulfonyl pyrimidine-CL2A-carbonate linker. The payload is conjugated with the antibody through irreversible nucleophilic aromatic substitution by tris (2-carboxyethyl) phosphine hydrochloride (TCEP HCl), a reducing agent that can reduce the interchain disulfide bounds. The drug-to-antibody ratio (DAR) of SKB264 was approximately 7.4, which was determined by the reversed-phase chromatography (RPC), and might be the theoretical maximum drug loading number for conventional interchain cysteine conjugation ( Figure 1B ). SKB264 was designed to release payload KL610023 after internalization by TROP2-expressing tumor cells. The inhibitory effect of KL610023 on topoisomerase I was almost similar to that of SN-38, as measured by a topoisomerase I-mediated DNA relaxation assay ( Figure 1C ).
Figure 1 Structure and characterization of SKB264. […] (B) The distribution of the conjugated drug determined by the reverse-phase chromatography analysis (L-0: Unconjugated light chain, L-1: Light chain conjugated with one payload, H-0: Unconjugated heavy chain, H-1: Heavy chain conjugated with one payload, H-2: Heavy chain conjugated with two payloads, H-3: Heavy chain conjugated with three payloads). […]

HCC1806 (TROP2+) = test: cytotoxic assay (CellTiter-Glo, 72 h) HCC1806; type: cell-based, human; conditions: HCC1806, payload comparison, Figure 7C, duplicates; read-out: IC50 inhibition of proliferation of HCC1806 cells
Experimental: Tumor cells were seeded on 96-well plates at the following concentrations: HCC1806 (3,000 cells per well), NCI-N87 (5,000 cells per well), BxPC-3 (2,000 cells per well), Calu-3 (8,000 cells per well), NCI-H23 (TROP2+, 3,000 cells per well), and NCI-H23 (parental, 3,000 cells per well). After overnight incubation, the diluted testing items were added respectively. After 72 h, cell viability was evaluated using a CellTiter-Glo Luminescent Cell Viability Assay (Promega Corp. Madison, WI), following the manufacturer’s instruction.

HCC1806 xenograft [1] = test: PK-PD study, single dose, HCC1806 xenograft; type: in vivo, BALB/c nude mice
Experimental: Phoenix WinNonlin 8.1 was used to calculate the PK parameters in the non-compartment model, including t 1/2, T max, C max, AUC0-t, and AUC0-∞. […] The half maximal effective concentration (EC50) and half maximal inhibitory concentration (IC50) were calculated using a nonlinear regression model with sigmoidal fitting. The in vitro antitumor activities of drugs were evaluated by a two-tailed paired t-test.

[2] = in vitro stability in monkey plasma (payload release); type: in vitro ADME, cynomolgus monkeys; conditions: cynomolgus monkey plasma, 50 μg/ml, 37°C, 48-h incubation
Human TROP2 protein [3] = molecular target: T2, Human TROP2 protein (Homo sapiens, UniProt P09758); test: SPR dynamic affinity to human TROP2; type: binding; conditions: read-out: K d (KD) to recombinant human TROP2
T2 sequence (P09758 27-323): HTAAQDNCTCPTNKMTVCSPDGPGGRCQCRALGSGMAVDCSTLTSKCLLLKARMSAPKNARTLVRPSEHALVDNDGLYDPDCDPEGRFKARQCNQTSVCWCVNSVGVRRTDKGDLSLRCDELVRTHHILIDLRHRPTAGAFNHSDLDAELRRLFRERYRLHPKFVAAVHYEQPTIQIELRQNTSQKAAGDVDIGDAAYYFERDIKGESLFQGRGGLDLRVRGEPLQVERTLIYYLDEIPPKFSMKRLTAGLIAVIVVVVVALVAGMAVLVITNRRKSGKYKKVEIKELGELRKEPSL
Experimental: Surface plasmon resonance (SPR) was an alternative method to evaluate dynamic affinity, in which human TROP2 protein was captured with goat anti-human IgG Ab immobilized onto a CM5 sensor chip (Biacore Inc., Raleigh, NC). Serial titrations of SKB264 or IMMU-132 ranging from 0.0823 to 2.22 nM and running buffer were individually injected over the surface, which was captured human TROP2 for an association phase of 120 s, followed by a 600-s dissociation time. Kinetic parameters were calculated using the BIA evaluation software with the average values of two datasets collected on separate days. Association (K a) and dissociation (K d) rate constant values were calculated by fitting analysis assuming a Langmuir binding model ([16]) and a stoichiometry of (1:1) to determine K D (equilibrium dissociation constant) values.

[4] = in vitro stability in human plasma (payload release); type: in vitro ADME; conditions: 50 μg/ml, 37°C, 48-h incubation
[5] = parameters: method as in PMID 25494821; conditions: cited from earlier work
[6] = test system: triple-negative breast cancer; parameters: method as in PMID 28291390, PMID 25944802; conditions: drug-resistant triple-negative breast cancer (TNBC) patients; cited from earlier work
HCC1806 xenograft [7] = conditions: for TGI: HCC1806 xenograft (Figure 7D)
Experimental: Female BALB/c nude mice (Charles River, Beijing, China) were inoculated with 2×10^6 HCC1806 cells in the right front flank. To evaluate in vivo efficacy of ADC, when the average tumor size reached about 120 mm^3, mice were randomized into 7 groups (n = 6 mice/group). The mice were treated with SKB264 or IMMU-132 at doses of 1, 3, and 10 mg/kg twice a week for six times via i.v. injection. To evaluate the PK-PD of ADC, when the average tumor size reached approximately 270 mm^3, mice were randomized into three groups (n = 5/time point). The mice received a single i.v. injection of control hIgG1, SKB264, or IMMU-132 (3 mg/kg), respectively. Blood samples (from five mice) were collected at 1 h, 4 h, 8 h, 24 h, 48 h, 96 h, 192 h, or 336 h post-dosing to detect the concentration of payload at each time point. The rate of TGI (n = 5 mice, measured at endpoint, i.e., 336 h) was determined to evaluate the antitumor efficacy of ADC. Body weight changes and mortality were also recorded to evaluate the tolerability of the testing items.

[8] = parameters: method as in PMID 25944802; conditions: tumor-bearing mice model; previous studies; cited from earlier work
mouse TROP2 protein = molecular target: T3, mouse TROP2 protein (Mus musculus, UniProt Q8BGV3); test: ELISA binding to mouse TROP2
T3 sequence (Q8BGV3 25-317): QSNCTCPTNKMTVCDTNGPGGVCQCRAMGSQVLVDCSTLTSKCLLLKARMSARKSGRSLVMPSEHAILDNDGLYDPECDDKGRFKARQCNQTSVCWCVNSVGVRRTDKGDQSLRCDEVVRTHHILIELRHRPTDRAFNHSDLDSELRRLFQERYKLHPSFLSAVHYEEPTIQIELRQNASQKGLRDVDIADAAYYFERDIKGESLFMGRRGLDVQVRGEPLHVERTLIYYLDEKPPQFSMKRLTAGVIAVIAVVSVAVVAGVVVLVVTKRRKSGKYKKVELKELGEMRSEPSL
Experimental: (§1) An enzyme-linked immunosorbent assay (ELISA) was used to evaluate the binding and dynamics affinity. Human TROP2 protein (1 μg/ml) (Sino Biological Inc, Wayne, PA) was coated on a 96-well plate overnight at 4°C. The plate was then blocked by Super block reagent (ScyTek Inc. Logan UT) at room temperature for 1 h. Diluted SKB264, SKB264 mAb, or isotype control (human IgG1 antibody) was added for incubation at 37°C for 1 h. After washing, the diluted (1:10,000) goat anti-human IgG Fc-horseradish peroxidase (HRP) (Abcam, Waltham, MA) was added for further incubation for 45 min at 37°C. Finally, TMB solution was added for absorbance measurement at 450 nm using a SpectraMax Plus384 Microplate reader (Molecular Devices, USA).
(§2) Firstly, the affinities of SKB264 and SKB264 mAb to TROP2 of different species were evaluated by ELISA. […] Therefore, we performed the pharmacokinetic experiments in cynomolgus monkeys.

[9] = test system: TROP2-positive cells HCC1806; test: cell-level binding to HCC1806 by FACS; parameters: species or system human; conditions: read-out: Antibody EC50 determination on HCC1806
Experimental: (§3) To examine whether the anti-TROP2 mAb plays a targeting role via specifically recognizing the highly expressed TROP2 on the surface of tumor cells, the following experiments were conducted ([17]).
(§4) Figure 2 In vitro activities of SKB264. (A) Binding to human TROP2 estimated by ELISA (duplicates, mean ± SEM). (B) SKB264 binding to HCC1806 and NCI-N87 estimated by FACS. (C) Internalization of SKB264 or SKB264 mAb in HCC1806 and NCI-N87 cells. (D) In vitro cell growth inhibitory activity (triplicates, mean ± SEM) in HCC1806, NCI-N87, BxPC-3, Calu-3, NCI-H23 (TROP2+), and NCI-H23 (parental) cells.

NCI-N87 cells = test: endocytosis (internalization) experiment in NCI-N87; type: cell-based, human
Experimental: as §3, §4

HCC1806 cells = test: endocytosis (internalization) experiment in HCC1806; type: cell-based, human
Experimental: as §3, §4

monkey TROP2 = test: ELISA binding to monkey TROP2
Experimental: as §1, §2

rat TROP2 protein = test: ELISA binding to rat TROP2
Experimental: as §1, §2

Human TROP2 protein [10] = molecular target: T2, Human TROP2 protein; test: ELISA binding to human TROP2 protein; parameters: purchased Sino Biological Inc, Wayne, PA
Experimental: as §1

[11] = test system: TROP2-positive cells NCI-N87; test: cell-level binding to NCI-N87 by FACS; parameters: species or system human; conditions: read-out: Antibody EC50 determination on NCI-N87
Experimental: as §3, §4

[12] = plasma, payload after single i.v. 3 mg/kg SKB264 (KL610023) or IMMU-132 (SN-38), HCC1806 tumor-bearing mice, mean, n = 5
[13] = tumor, payload after single i.v. 3 mg/kg SKB264 (KL610023) or IMMU-132 (SN-38), HCC1806 tumor-bearing mice, mean, n = 5

CCc1c2c(nc3ccc(O)cc13)-c1cc3c(c(=O)n1C2)COC(=O)[C@]3(O)CC [SN-38]
IC50 (DNA topoisomerase I): 1100 nM | IC50 (HCC1806 (TROP2+)): 2.61 nM | AUC0-∞ of payload (HCC1806 xenograft [1]; [12]): 22.17 ng·h/mL | AUClast of payload (HCC1806 xenograft [1]; [12]): 19.26 ng·h/mL | C max of payload (HCC1806 xenograft [1]; [12]): 1.32 ng/mL | t 1/2 of payload (HCC1806 xenograft [1]; [12]): 15.5 h | AUC0-∞ of payload (HCC1806 xenograft [1]; [13]): 448 ng·h/g | AUClast of payload (HCC1806 xenograft [1]; [13]): 410 ng·h/g | C max of payload (HCC1806 xenograft [1]; [13]): 4.5 ng/g | T max of payload (HCC1806 xenograft [1]; [13]): 24 h | t 1/2 of payload (HCC1806 xenograft [1]; [13]): 57.4 h

sacituzumab govitecan [IMMU-132]
release rate of the payload [2]: ~100% | Kd (Human TROP2 protein [3]): 0.293 nM | release rate of the payload [4]: ~100% | half-life in serum [5]: ~ 1 day | TGI (HCC1806 xenograft [1]; HCC1806 xenograft, single i.v. 3 mg/kg, after 13 days (336 h)): 21.05% | objective response rate (ORR) [6]: 33% | TGI (HCC1806 xenograft [7]; 1 mg/kg i.v. twice a week for six times): 48.12% | TGI (HCC1806 xenograft [7]; 3 mg/kg i.v. twice a week for six times): 70.64% | TGI (HCC1806 xenograft [7]; 10 mg/kg i.v. twice a week for six times): 153.27% | body weight of the experimental mice (HCC1806 xenograft [7]; HCC1806 xenograft, all treatment groups 1, 3, 10 mg/kg): no significant change | half-life [8]: 14 h

SKB264 mAb: humanized anti-TROP2 mAb with the same amino acid sequence as the antibody of IMMU-132
EC50 binding to mouse TROP2 protein (mouse TROP2 protein): > 5,000 ng/ml | EC50 [9]: 16.1 nM | percentage of endocytosis (NCI-N87 cells): increased over time | percentage of endocytosis (HCC1806 cells): increased over time | EC50 of the affinity with monkey TROP2 (monkey TROP2): 3.399 ng/mL | EC50 binding to rat TROP2 protein (rat TROP2 protein): > 5,000 ng/ml | EC50 determination on Human TROP2 (Human TROP2 protein [10]): 2.731 ng/mL | EC50 [11]: 8.09 nM
